Measured values reported in US20250179066A1, “ZWITTERIONIC ANTIBACTERIAL COMPOUNDS” (Hoffmann-La Roche Inc., priority 2022, published 2025).

Each compound was assayed on Acinetobacter baumannii ATCC17961 (assay: Antimicrobial susceptibility testing: 90% growth inhibitory concentration (IC90) determination). Conditions: Acinetobacter baumannii, ATCC17961, 16 h, 90% growth inhibitory concentration against Acinetobacter baumannii ATCC17961, Iso-Sensitest broth, OD 600 nm over 16 h; read-out: ATCC 17961 IC90.
Type: cell-based
How it was run: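 OD600 monitored each minute over 16 h at 35±2° C for bacteria (~5×10^5 CFU/mL final) in Iso-Sensitest medium with 10-point twofold compound series (e.g. 10-0.0195 μM final). Concentration giving 90% growth inhibition in log phase reported as IC90.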

SMILES | IC90
Cn1c(-c2cn(-c3ccc4c(ccn4C(C)(C)C(N)=O)n3)nc2C(F)(F)F)cnc1C(=O)Nc1ccc(C(=O)N2CCN(C(=O)[C@H]3CC[N@+](CC(=O)O)(CC4CNC4)CC3)CC2)c(Cl)c1 [Example 138, cis-2-[4-[4-[4-[[5-[1-[1-(2-amino-1,1-dimethyl-2-oxo-ethyl)pyrrolo[3,2-b]pyridin-5-yl]-3-(trifluoromethyl)pyrazol-4-yl]-1-methyl-imidazole-2-carbonyl]amino]-2-chloro-benzoyl]piperazine-1-carbonyl]-1-(azetidin-3-ylmethyl)piperidin-1-ium-1-yl]acetic acid;chloride] | 408 nM
Cn1c(-c2cn(-c3cc4[nH]cc(C(N)=O)c4cn3)nc2C(F)(F)F)cnc1C(=O)Nc1ccc(C(=O)N2CCN(C(=O)[C@H]3CC[N@+](CC(=O)O)(CC4CNC4)CC3)CC2)c(Cl)c1 [Example 157, cis-2-[1-(azetidin-3-ylmethyl)-4-[4-[4-[[5-[1-(3-carbamoyl-1H-pyrrolo[3,2-c]pyridin-6-yl)-3-(trifluoromethyl)pyrazol-4-yl]-1-methyl-imidazole-2-carbonyl]amino]-2-chloro-benzoyl]piperazine-1-carbonyl]piperidin-1-ium-1-yl]acetic acid. 1:1 2,2,2-trifluoroacetate] | 368 nM
Cn1c(-c2cn(-c3ccc4[nH]c(CCO)cc4n3)nc2C(F)(F)F)cnc1C(=O)Nc1ccc(C(=O)N2CCN(C(=O)[C@H]3CC[N@+](CC(=O)O)(CC4CNC4)CC3)CC2)c(Cl)c1 [Example 162, cis-2-[1-(azetidin-3-ylmethyl)-4-[4-[2-chloro-4-[[5-[1-[2-(2-hydroxyethyl)-1H-pyrrolo[3,2-b]pyridin-5-yl]-3-(trifluoromethyl)pyrazol-4-yl]-1-methyl-imidazole-2-carbonyl]amino]benzoyl]piperazine-1-carbonyl]piperidin-1-ium-1-yl]acetic acid;formate] | 203 nM
CN(C)CC[N@+]1(CC(=O)O)CC[C@@H](C(=O)N2CCN(C(=O)c3ccc(NC(=O)c4ncc(-c5cn(-c6ccc(N)cc6F)nc5C(F)(F)F)n4C)cc3Cl)CC2)CC1 [Example 188, cis-2-[4-[4-[4-[[5-[1-(4-amino-2-fluoro-phenyl)-3-(trifluoromethyl)pyrazol-4-yl]-1-methyl-imidazole-2-carbonyl]amino]-2-chloro-benzoyl]piperazine-1-carbonyl]-1-[2-(dimethylamino)ethyl]piperidin-1-ium-1-yl]acetic acid;2,2,2-trifluoroacetate] | 540 nM
Cn1c(-c2cn(-c3ccc(O)cn3)nc2C(F)(F)F)cnc1C(=O)Nc1ccc(C(=O)N2CCN(C(=O)C3CC[N+](CC(=O)O)(CC4CNC4)CC3)CC2)c(Cl)c1 (stereo not shown) [Example 54, 2-[1-(azetidin-3-ylmethyl)-4-[4-[2-chloro-4-[[5-[1-(5-hydroxy-2-pyridyl)-3-(trifluoromethyl)pyrazol-4-yl]-1-methyl-imidazole-2-carbonyl]amino]benzoyl]piperazine-1-carbonyl]piperidin-1-ium-1-yl]acetic acid. 1:1 2,2,2-trifluoroacetate] | 550 nM
Cn1c(-c2cn(-c3ccc(O)cc3F)nc2C(F)(F)F)cnc1C(=O)Nc1ccc(C(=O)N2CCN(C(=O)[C@H]3CC[N@+](CC(=O)O)(CC4CNC4)CC3)CC2)c(F)c1 [Example 136, cis-2-[1-(azetidin-3-ylmethyl)-4-[4-[2-fluoro-4-[[5-[1-(2-fluoro-4-hydroxy-phenyl)-3-(trifluoromethyl)pyrazol-4-yl]-1-methyl-imidazole-2-carbonyl]amino]benzoyl]piperazine-1-carbonyl]piperidin-1-ium-1-yl]acetic acid;formate] | 173 nM
Cn1c(-c2cn(-c3ccc(N4CCOCC4)cc3F)nc2C(F)(F)F)cnc1C(=O)Nc1ccc(C(=O)N2CCN(C(=O)[C@H]3CC[N@@+](CCCN)(CC(=O)O)CC3)CC2)c(Cl)c1 [Example 100, cis-2-[1-(3-aminopropyl)-4-[4-[2-chloro-4-[[5-[1-(2-fluoro-4-morpholino-phenyl)-3-(trifluoromethyl)pyrazol-4-yl]-1-methyl-imidazole-2-carbonyl]amino]benzoyl]piperazine-1-carbonyl]piperidin-1-ium-1-yl]acetic acid;formate] | 195 nM
